Experimental data from patent US11547698B2, “Aryl hydrocarbon receptor modulators” (ARIAGEN, INC., priority 2016, dated 2023).

Target: T1, AhR receptor (Homo sapiens, UniProt P35869)
T1 construct: cells of reporter gene expressing natural (Human Hepatoma Huh-7) AhR receptor; endogenous in cells; host or cells: Human hepatoma Huh-7 reporter cells (firefly luciferase under a receptor-specific response element)
T1 sequence (P35869 11-848): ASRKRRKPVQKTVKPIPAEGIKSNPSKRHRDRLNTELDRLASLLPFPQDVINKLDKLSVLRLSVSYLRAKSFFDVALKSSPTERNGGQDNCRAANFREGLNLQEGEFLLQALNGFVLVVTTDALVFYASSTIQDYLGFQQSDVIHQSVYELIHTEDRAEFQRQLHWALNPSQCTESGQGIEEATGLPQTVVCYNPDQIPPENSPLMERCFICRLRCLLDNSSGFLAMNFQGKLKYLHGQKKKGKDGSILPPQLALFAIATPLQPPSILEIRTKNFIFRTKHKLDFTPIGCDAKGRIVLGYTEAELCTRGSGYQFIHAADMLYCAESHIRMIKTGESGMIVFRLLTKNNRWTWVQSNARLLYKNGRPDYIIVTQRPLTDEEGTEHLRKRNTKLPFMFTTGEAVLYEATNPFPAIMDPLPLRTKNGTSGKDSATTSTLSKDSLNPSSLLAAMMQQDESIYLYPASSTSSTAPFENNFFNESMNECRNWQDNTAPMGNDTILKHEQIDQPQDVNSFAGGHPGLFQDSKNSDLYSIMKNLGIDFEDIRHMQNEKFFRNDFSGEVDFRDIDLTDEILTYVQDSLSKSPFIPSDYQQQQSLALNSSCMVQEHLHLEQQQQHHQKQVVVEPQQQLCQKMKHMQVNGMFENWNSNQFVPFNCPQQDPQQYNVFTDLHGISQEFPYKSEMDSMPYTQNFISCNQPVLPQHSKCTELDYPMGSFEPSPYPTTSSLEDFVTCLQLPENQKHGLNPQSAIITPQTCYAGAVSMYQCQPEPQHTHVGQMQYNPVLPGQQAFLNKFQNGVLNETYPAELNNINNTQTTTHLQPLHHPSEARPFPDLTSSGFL
Assay: AhR agonist assay (luciferase reporter gene cells)
Type: cell-based
Conditions: reporter cells expressing natural (Human Hepatoma Huh-7) AhR receptor, firefly luciferase, 24 hours at 37° C., 0.1% DMSO
Description: Experimental material (plasmids): cells of reporter gene expressing natural (Human Hepatoma Huh-7) AhR receptor, in which reporter vector comprises a functional firefly luciferase gene connecting to an upstream receptor specific genetic response element (GRE).
AhR agonist test includes following three steps:
1, Implanting into cells: a suspension of reporter cell of AhR receptor was prepared in cell recovery medium (CRM; containing 10% charcoal-treated FBS). Then the suspension (100 μL) was assigned to wells in a white culture plate with 96 wells.
2, Before the experiment was about to begin, Master Stocks was diluted to be a processing medium of “concentration of 2 X” by use of appropriate compound screening assay medium (CSM: containing 10% charcoal-treated FBS). Test compounds were diluted with gradient method by use of CSM medium containing 0.2% DMSO to make the final concentration of DMSO in each well of each treatment group being 0.1%. The processing medium was added to culture plate (100 μL/well) on which cells containing reporter gene had been laid in advance in wells by means of double duplicate. The culture plate was placed in an incubator of 37° C. for 24 hours.
3, Fluorescence detection and analysis: after incubation, the processing medium was discarded and luciferase detection reagent was added 100 μL/well. Ave RLU (mean relative fluorescence intensity) of each well and coefficient of variation for each set of experiments were detected. Ratio of Ave RLU^Test Cmpd of treatment groups with test compound of different concentrations to Ave RLU^Vehicle of blank control group can determine activity quantitatively of AhR receptor under influence of test compound of different concentrations and activating multiples as well as EC50.
Processing method of data may refer to J. Biomol.

SMILES	EC50 [nM]
O=C(c1nc(-c2nnc[nH]2)cs1)c1c[nH]c2ccccc12 [Compound 36]	1 to 1000
COC(=O)CNC(=O)c1csc(C(=O)c2c[nH]c3ccccc23)n1 [Compound 27]	1 to 1000
COC(=O)c1csc(C(=O)c2cn(C3OC(COC(C)=O)C(OC(C)=O)C(OC(C)=O)C3OC(C)=O)c3ccccc23)n1 (stereo not shown) [Compound 38-2]	1 to 1000
COCCOCCOCCOCC(=O)OCC(=O)OCn1cc(C(=O)c2nc(C(=O)OC)cs2)c2ccccc21 [Compound 7]	1 to 1000
COCCOCCOCCOCC(=O)OCn1cc(C(=O)c2nc(C(=O)OC)cs2)c2ccccc21 [Compound 6]	1 to 1000
O=C(c1nc(-c2cnccn2)cs1)c1c[nH]c2ccccc12 [Compound 39]	1 to 1000
O=C(c1nc(-c2nnn[nH]2)cs1)c1c[nH]c2ccccc12 [Compound 35]	1000 to 10000
COC(=O)c1csc(C(=O)c2cn(CO)c3ccccc23)n1 [Compound 37]	1 to 1000
CC(C)c1nc(C(=O)c2c[nH]c3ccccc23)cs1 [Compound 9]	1 to 1000
CC(C)c1csc(C(=O)c2c[nH]c3ccccc23)n1 [Compound 21]	1 to 1000
COC(=O)c1nsc(C(=O)c2c[nH]c3ccccc23)n1 [Compound 8]	1000 to 10000
COC(=O)c1csc(Cc2c[nH]c3ccccc23)n1 [Compound 28]	10000 to 100000
COC(=O)COCn1cc(C(=O)c2nc(C(=O)OC)cs2)c2ccccc21 [Compound 3]	1 to 1000
O=C(c1nc(C2CC2)cs1)c1c[nH]c2ccccc12 [Compound 41]	1 to 1000
O=C(c1nc(-c2ccco2)cs1)c1c[nH]c2ccccc12 [Compound 40]	1 to 1000
O=C(c1nc(-c2ccccn2)cs1)c1c[nH]c2ccccc12 [Compound 22]	1 to 1000
COC(=O)c1nnc(C(=O)c2c[nH]c3ccccc23)o1 [Compound 34]	1000 to 10000
COC(=O)c1ccc(C(=O)c2c[nH]c3ccccc23)nc1 [Compound 18]	1000 to 10000
Nc1nc(-c2csc(C(=O)c3c[nH]c4ccccc34)n2)cs1 [Compound 44]	1 to 1000
COC(=O)c1csc(C(=O)c2c[nH]c3ccccc23)c1 [Compound 15]	10000 to 100000
COC(=O)c1c[nH]c(C(=O)c2c[nH]c3ccccc23)n1 [Compound 23]	1 to 1000
COCCOCCOCCOC(=O)n1cc(C(=O)c2nc(C(=O)OC)cs2)c2ccccc21 [Compound 5]	1 to 1000
COC(=O)c1csc(C(=O)c2cn(C3OC(COC(C)=O)C(OC(C)=O)C(OC(C)=O)C3OC(C)=O)c3ccccc23)n1 (stereo not shown) [Compound 38-1]	1 to 1000
COC(=O)c1ccc(C(=O)c2c[nH]c3ccccc23)n1C [Compound 12]	1 to 1000

Other lines, results leading:

EC50 [nM]	SMILES
1 to 1000	O=C(c1nc(-c2nccs2)cs1)c1c[nH]c2ccccc12 [Compound 31-2]
1 to 1000	O=C(c1nc(-c2ncco2)cs1)c1c[nH]c2ccccc12 [Compound 33-2]
1 to 1000	COC(=O)C1CSC(C(=O)c2c[nH]c3ccc(OC)cc23)=N1 (stereo not shown) [Compound 19-1]
1 to 1000	COC(=O)c1csc(C(=O)c2cn(COC(=O)[C@@H](N)C(C)(C)C)c3ccccc23)n1 [Compound 2-2]
1000 to 10000	CO/N=C(/c1nc(C(=O)OC)cs1)c1c[nH]c2ccccc12 [Compound 25-1]
1 to 1000	COC(=O)c1csc(C(=O)c2c[nH]c3ccc(OC)cc23)n1 [Compound 19-2]
1 to 1000	COC(=O)c1csc(-c2csc(C(=O)c3c[nH]c4ccccc34)n2)n1 [Compound 32-2]
1 to 1000	COC(=O)[C@@H]1COC(c2csc(C(=O)c3c[nH]c4ccccc34)n2)=N1 [Compound 30-1]
1000 to 10000	COC(=O)c1csc(/C(=N/O)c2c[nH]c3ccccc23)n1 [Compound 26-1]
1 to 1000	O=C(c1nc(-c2c[nH]cn2)cs1)c1c[nH]c2ccccc12 [Compound 43-2]
1000 to 10000	COC(=O)c1csc(/C(=N\O)c2c[nH]c3ccccc23)n1 [Compound 26-2]
1 to 1000	COC(=O)c1coc(-c2csc(C(=O)c3c[nH]c4ccccc34)n2)n1 [Compound 30-2]
1 to 1000	COC(=O)c1csc(C(=O)c2cn(C3OC(COC(C)=O)C(O)C(O)C3O)c3ccccc23)n1 (stereo not shown) [Compound 38-3]
1 to 1000	COC(=O)c1csc(C(=O)c2cn(COC(=O)[C@@H](N)C(C)C)c3ccccc23)n1 [Compound 1-2]
1 to 1000	O=C(c1nc(C2=NCCS2)cs1)c1c[nH]c2ccccc12 [Compound 31-1]
1 to 1000	CC(C)[C@H](N)C(=O)n1cc(C(=O)c2nc(-c3nccs3)cs2)c2ccccc21 [Compound 42-2]
1000 to 10000	CO/N=C(\c1nc(C(=O)OC)cs1)c1c[nH]c2ccccc12 [Compound 25-2]
1 to 1000	COC(=O)c1csc(C(=O)c2cn(C3OC(CO)C(O)C(O)C3O)c3ccccc23)n1 (stereo not shown) [Compound 38-4]
1 to 1000	O=C(c1nc(C2=NCCO2)cs1)c1c[nH]c2ccccc12 [Compound 33-1]
1 to 1000	COC(=O)C1CSC(c2csc(C(=O)c3c[nH]c4ccccc34)n2)=N1 (stereo not shown) [Compound 32-1]
1 to 1000	COC(=O)c1csc(C(=O)c2cn(C(=O)[C@@H](N)C(C)C)c3ccccc23)n1 [Compound 4-2]
1 to 1000	CC(C)[C@H](NC(=O)OC(C)(C)C)C(=O)n1cc(C(=O)c2nc(-c3nccs3)cs2)c2ccccc21 [Compound 42-1]
